Assays:
[1] = tested on: iTregs and Tconvs; assay: iTreg and Tconv expansion from DC-allostimulated naive CD4+ T cells; type: cell-based, human
Procedure: To evaluate iTreg development, naive CD4^+ cells were isolated from nylon-wool-eluted T cells by magnetic-bead selection (Miltenyi Biotec), based on the positive expression of CD4 and lack of CD45RO, CD25, or both. In addition, CD127 staining of the naive CD4^+ cells was performed after the purification, to ensure depletion of natural Tregs from the cell product. Negligible amounts of CD127^-, CD25^Bright nTregs were observed after magnetic-bead purification. […] The T cells were harvested and surface stained on day 5 for CD3, -4, -25, and -127, followed by fixation and permeabilization (eBioscience), and then intracellular staining for Foxp3 [Liu, W., et al. (2006) J. Exp. Med. 203, 1701-1711; […]., et al. (2006) J. Exp. Med. 203, 1693-1700]. Tregs were characterized by gating on the live cells expressing surface CD3^+, CD4^+, and absence of CD127, followed by expression of Foxp3 and CD25^bright [Liu, W., et al. (2006) J. Exp. Med. 203, 1701-1711; […]., et al. (2006) J. Exp. Med. 203, 1693-1700]. The absolute number of iTregs and Tconv (CD4^+ CD25^-) cells was obtained by timed acquisition. The ratio of iTreg:Tconv was calculated based on the absolute number of each T-cell population.

[2] = tested on: TH17 cells; assay: Evaluation of TH17 responses (CD4+ IL-17A+ T cells, IL-17A ELISA); type: cell-based, human
Procedure: To optimize the detection of IL-17A producing cells, nylon-wool-purified T cells underwent CD4^+ magnetic-bead selection. The CD4^+ T cells were cultured in triplicate with allogeneic, mature moDCs (DC:T cell ratio 1:30, 1×10^6 T cells/1 ml medium in a 48-well plate, 37° C.) and treated with S3I-201 (50 or 100 μM) or DMSO. The medium was supplemented with IL-6 (10^5 IU/ml), TGF-β (4 ng/ml), and anti-IFN-γ mAb (10 μg/ml) to support TH17 growth. The T cells were harvested and stimulated with PMA/ionomycin for 5 h, with GolgiStop Protein Transport Inhibitor (BD Biosciences) added after 1 h of activation. TH17 cells were identified by surface CD3 and CD4 expression, followed by intracellular staining for IL-17A. The absolute number of IL-17A-producing CD4^+ T cells was obtained by timed acquisition.
The concentration of IL-17A was measured (anti-human IL-17A [homodimer] ELISA Ready-Set-Go; eBioscience) in the supernatant of identically prepared and drug-treated CD4 T-cell allo-MLRs (DC:T cell ratio 1:30, 1.5×10^5 T cells per 125 μl medium in a 96-well plate, 37° C.). After 5 days, PMA/ionomycin was added directly to the cultures and stimulated for 5 h. GolgiStop was omitted from the PMA/ionomycin activation step, to permit detection of IL-17A in the culture supernatants. The supernatants were collected, and the IL-17A protein concentration was measured in triplicate, per the manufacturer's instructions.

[3] = S3I-201 50 or 100 μM, 5 day coculture with IL-6, TGF-β, anti-IFN-γ mAb

Compound: Cc1ccc(S(=O)(=O)OCC(=O)Nc2ccc(C(=O)O)c(O)c2)cc1 [S3I-201]
- absolute number of iTregs ([1]; S3I-201 25 μM and 50 μM, dose-dependent, day 5): significantly increased
- number of iTregs compared with DMSO ([1]; S3I-201 100 μM): significantly reduced
- number of alloreactive Tconvs ([1]; S3I-201, day 5): dramatically reduced
- ratio of iTregs to Tconvs ([1]; S3I-201, day 5): increased ratio
- absolute numbers of CD4+, IL-17A+ T cells compared with DMSO [2, 3]: significant reduction
- frequency of CD4+, IL-17A+ T cells compared with DMSO [2, 3]: significant reduction
- IL-17A protein concentration in coculture supernatants ([2]; S3I-201, 5 day coculture, ELISA): significant decrease
